Data: patent publication US20150065717A1, “NIPECOTIC ACID DERIVATIVE AND USE THEREOF FOR MEDICAL PURPOSES” (Toray Industries, Inc., priority 2012, published 2015)

How the values were obtained:
recombinant human sEH = target: T1, recombinant human sEH (Homo sapiens, UniProt P34913); assay: In vitro evaluation test for sEH inhibitory activity; type: biochemical; settings: recombinant human sEH 0.026 μg/mL, fluorescent substrate 6.25 μmol/L, room temperature
T1 construct: purchased Cayman
T1 sequence (P34913 1-555): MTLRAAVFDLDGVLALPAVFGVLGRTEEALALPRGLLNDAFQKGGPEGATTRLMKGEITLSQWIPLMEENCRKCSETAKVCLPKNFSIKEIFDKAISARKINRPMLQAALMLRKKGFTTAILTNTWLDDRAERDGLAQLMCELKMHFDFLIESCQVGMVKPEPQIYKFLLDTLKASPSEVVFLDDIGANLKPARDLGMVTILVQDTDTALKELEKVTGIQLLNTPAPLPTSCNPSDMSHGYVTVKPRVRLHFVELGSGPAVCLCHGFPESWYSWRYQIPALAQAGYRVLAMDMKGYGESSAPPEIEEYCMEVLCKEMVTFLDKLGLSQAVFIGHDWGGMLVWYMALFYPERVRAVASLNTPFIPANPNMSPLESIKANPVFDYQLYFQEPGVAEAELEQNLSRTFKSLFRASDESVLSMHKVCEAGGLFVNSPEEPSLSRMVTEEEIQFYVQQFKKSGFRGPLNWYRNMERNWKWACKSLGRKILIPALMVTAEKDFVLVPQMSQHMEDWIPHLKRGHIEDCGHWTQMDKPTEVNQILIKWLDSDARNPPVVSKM
Protocol: According to the method described in a known document (Analytical Biochemistry, 2005, vol. 343, p. 66-75), the sEH inhibitory activity of each nipecotic acid derivative (I) or a pharmaceutically acceptable salt thereof was evaluated using human sEH.
A recombinant human sEH (final concentration, 0.026 μg/mL; Cayman) was incubated with each test compound in 25 mM Bis-Tris-HCl buffer (pH 7.0) supplemented with 0.1 mg/mL BSA at room temperature for 30 minutes. Thereafter, cyano(6-methoxynaphthalen-2-yl)methyl 2-(3-phenyloxiran-2-yl)acetate (final concentration, 6.25 μmol/L; Cayman) was added thereto as a fluorescent substrate, and the resulting mixture was incubated at room temperature for 20 minutes. The reaction was then stopped by addition of ZnSO4 (final concentration, 0.2 mol/L), and the fluorescence intensity was measured (Fusion α (Packard); Excitation: 330 nm, Emission:485 nm).
The fluorescence intensity observed with addition of neither sEH nor a test compound was regarded as the sEH enzymatic reaction rate of 0%, and the fluorescence intensity observed with addition of sEH but without addition of a test compound was regarded as the sEH enzymatic reaction rate of 100%. From the obtained fluorescence intensity, the sEH enzymatic reaction rate of each test compound was calculated to determine IC50.

[1] = system: rat anti-GBM antiserum-administered nephritis model; assay: Pharmacological effect in rat anti-GBM antiserum-administered nephritis model; type: in vivo, rat (Wistar-Kyoto strain)
Protocol: Example Compound 1 or 2 was administered to a rat anti-GBM antiserum-administered nephritis model (Proceedings of the National Academy of Sciences of the United States of America, 2005, vol. 102, p. 7736-7741; European journal of pharmacology, 2002, vol. 449, p. 167-176), and the therapeutic effect of the nipecotic acid derivative (I) or a pharmaceutically acceptable salt thereof on chronic renal disease with glomerulonephritis and renal failure was evaluated. Rats (Wistar-Kyoto strain, male, 8 weeks old; Charles River Laboratories Japan, Inc.) with nephritis induced by administration of a rabbit anti-rat GBM antiserum prepared by methods described in documents (Proceedings of the National Academy of Sciences of the United States of America, 2005, vol. 102, p. 7736-7741; European journal of pharmacology, 2002, vol. 449, p. 167-176) into the tail vein were provided as “group with induced nephritis”. On the other hand, rats to which the anti-GBM antiserum was not administered were provided as “normal group”. Two weeks after administration of anti-GBM antiserum, blood was collected from the tail vein or jugular vein of each rat, and the sCre level was measured. The measurement of the sCre level was carried out by the enzymatic method. Two weeks after administration of anti-GBM antiserum, part of the rats were euthanized under anesthesia, and their kidneys were removed and immersed in formalin for storage. The formalin-fixed kidneys were embedded in paraffin, and sections were prepared. Pathological specimens (HE- and PAS-stained) were prepared therefrom, and histopathological examination was carried out. To rats showing pathological conditions of glomerulonephritis and renal failure in the group with induced nephritis, a suspension of Example Compound 1 in 0.5% aqueous methyl cellulose solution […] of anti-GBM antiserum until the end of the experiment. This group was provided as “Example Compound 1 (3 mg/kg)-administered group”. In addition, for comparative control, 0.5% aqueous methyl cellulose solution supplemented with 0.5% Tween 80 was similarly administered to rats in the group with induced nephritis, to provide “nephritis control group”. Similarly, 0.5% aqueous methyl cellulose solution supplemented with 0.5% Tween 80 was administered to the normal group. […] The serum Cys-C level was also measured at Week 5 after the administration of anti-GBM antiserum. The measurement of the serum Cys-C level was carried out using the antigen-antibody reaction. Five weeks after the administration of anti-GBM antiserum, the rats were euthanized under anesthesia. Kidneys were removed therefrom and immersed in formalin for storage. The formalin-fixed kidneys were embedded in paraffin, and sections were prepared. Histopathological specimens (HE- and PAS-stained) were prepared therefrom, and histopathological examination was carried out. […] The abscissa in the figure represents the number of weeks after the administration of anti-GBM antiserum, and the ordinate represents the sCre level (mean±standard error, n=6). The symbol “*” in the figure represents statistically significant difference from the nephritis control group (t-test, p<0.05). The results of histopathological examination of kidneys at Week 5 after the administration of anti-GBM antiserum are shown in FIG. 2, wherein the damaged areas in 30 to 40 glomeruli per individual were scored on a 4-point scale based on the ratio (%) of the lesion area (lesion area score: 1+, less than 25%; 2+, not less than 25% and less than 50%; 3+, not less than 50% and less than 75%; 4+, not less than 75%). Each individual corresponds to each bar, wherein the distribution of lesion area scores is shown. The ordinate in the figure represents the ratio of the lesion area score in each individual. Rats (Wistar-Kyoto strain, male, 10 weeks old; Charles River Laboratories Japan, Inc.) with glomerulonephritis induced by administration of an anti-GBM antiserum into the tail vein were provided as “group with induced nephritis”. […]

[2] = 3 mg/kg, 5 weeks after anti-GBM antiserum, 5 animals

| Compound | IC50 (recombinant human sEH) | sCre level vs nephritis control group ([1]; 10 mg/kg orally once per day from Week 2, Week 5 after anti-GBM antiserum, FIG. 3) | sCre level vs nephritis control group ([1]; 3 mg/kg orally once per day from Week 2, Week 3 after anti-GBM antiserum, t-test p<0.05, FIG. 1) | serum Cys-C level ([1]; 3 mg/kg orally once per day from Week 2, Week 5 after anti-GBM antiserum, mean±standard error, n=6) | histopathological examination of kidneys, injurious changes vs nephritis control group ([1]; 3 mg/kg, 5 weeks after anti-GBM antiserum) | Basophilic tubules, Mild [1, 2] | Basophilic tubules, Moderate [1, 2] | Dilatation of renal tubules, Mild [1, 2] | Dilatation of renal tubules, Moderate [1, 2] | Glomerular sclerosis, Mild [1, 2] | Glomerular sclerosis, Moderate [1, 2] | Glomerular sclerosis, Severe [1, 2] | Mild infiltration of mononuclear cells into the stroma [1, 2] | Protein casts in outer medulla, Mild [1, 2] | Protein casts in outer medulla, Moderate [1, 2] | Protein casts in outer medulla, Severe [1, 2] | scoring of the damaged area in glomeruli (lesion area score) ([1]; 3 mg/kg, Week 5 after anti-GBM antiserum, FIG. 2) |
| --- | --- | --- | --- | --- | --- | --- | --- | --- | --- | --- | --- | --- | --- | --- | --- | --- | --- |
| CC(C)(NS(C)(=O)=O)C(=O)N1CCC[C@@H](C(=O)NCc2ccc(C#N)cc2OC(F)(F)F)C1 [Example Compound 2, (R)—N-(4-cyano-2-(trifluoromethoxy)benzyl)-1-(2-methyl-2-(methylsulfonamido)propanoyl)piperidine-3-carboxamide] | 2.1 nM | remarkably lower | – | – | – | – | – | – | – | – | – | – | – | – | – | – | – |
| CCC(=O)NC1(C(=O)N2CCC[C@@H](C(=O)NCc3ccc(C#N)cc3OC(F)(F)F)C2)CCC1 [Example Compound 1, (R)—N-(4-cyano-2-(trifluoromethoxy)benzyl)-1-(1-propionamidocyclobutanecarbonyl)piperidine-3-carboxamide] | 1.1 nM | – | statistically significantly lower | 0.63 ± 0.08 mg/L | lower degrees and frequencies of these injurious changes | 2 number of individuals | 3 number of individuals | 1 number of individuals | 4 number of individuals | 0 number of individuals | 5 number of individuals | 0 number of individuals | 5 number of individuals | 1 number of individuals | 4 number of individuals | 0 number of individuals | suppression of glomerular injury |
